Values quoted from earlier work as cited in patent publication US20030170847A1, “Genes involved in isoprenoid compound production” (priority 2001, published 2003).

Experiments:
[1] = tested on: CrtL-type of lycopene cyclases; conditions: Cunningham et al., The Plant Cell 1994
[2] = tested on: nonphotosynthetic bacterial CrtY-type of lycopene cyclases; conditions: Cunningham et al., The Plant Cell 1994

| Structure (SMILES) | inhibition of CrtL-type of lycopene cyclases [1] | inhibition of CrtY-type of lycopene cyclases [2] |
| --- | --- | --- |
| CCN(CC)CCSc1ccc(Cl)cc1.Cl [CPTA, 2-(4-chlorophenylthio)-triethylamine hydrochloride] | specifically inhibit | not |
| CCN(CC)CCOc1ccc(C)cc1.Cl [MPTA, 2-(4-methylphenoxy)-triethylamine hydrochloride] | specifically inhibit | not |
